Values quoted from earlier work in US6767992B1 (PTC Pharma AG, priority 2001, dated 2004).

Test system: RPMI 8322 melanoma cells

L-prolyl-L-m-sarcolysyl-L-p-fluorophenylalanine [PSF]
times more toxic than m-sarcolysine (relative to m-sarcolysine): 28 times | times more toxic than melphalan (relative to melphalan): 35 times
